Key:
Format in all cases: biochemical
PARP3 = target: T1, PARP3 (Homo sapiens, UniProt Q9Y6F1); assay: PARP-isoform screening, Chemiluminescent Activity Assay Kit; details: Figure 5
T1 sequence (Q9Y6F1 1-533): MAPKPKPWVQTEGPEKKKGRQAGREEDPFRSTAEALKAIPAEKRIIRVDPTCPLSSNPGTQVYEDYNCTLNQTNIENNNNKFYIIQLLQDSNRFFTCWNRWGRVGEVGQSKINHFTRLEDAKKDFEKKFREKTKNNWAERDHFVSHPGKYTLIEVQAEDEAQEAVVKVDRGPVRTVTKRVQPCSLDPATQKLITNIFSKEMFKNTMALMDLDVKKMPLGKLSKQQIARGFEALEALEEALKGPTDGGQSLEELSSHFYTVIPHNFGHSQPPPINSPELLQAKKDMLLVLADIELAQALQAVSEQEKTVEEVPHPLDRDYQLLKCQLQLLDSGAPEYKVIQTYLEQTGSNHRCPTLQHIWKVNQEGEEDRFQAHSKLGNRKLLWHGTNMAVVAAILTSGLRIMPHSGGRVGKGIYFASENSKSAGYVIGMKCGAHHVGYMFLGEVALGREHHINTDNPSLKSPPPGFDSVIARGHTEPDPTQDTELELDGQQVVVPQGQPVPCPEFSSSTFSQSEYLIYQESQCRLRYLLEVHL

PARP14 = PARP14 (Homo sapiens, UniProt Q460N5); assay: as above; details: Figure 5
PARP14, sequence (Q460N5 whole entry): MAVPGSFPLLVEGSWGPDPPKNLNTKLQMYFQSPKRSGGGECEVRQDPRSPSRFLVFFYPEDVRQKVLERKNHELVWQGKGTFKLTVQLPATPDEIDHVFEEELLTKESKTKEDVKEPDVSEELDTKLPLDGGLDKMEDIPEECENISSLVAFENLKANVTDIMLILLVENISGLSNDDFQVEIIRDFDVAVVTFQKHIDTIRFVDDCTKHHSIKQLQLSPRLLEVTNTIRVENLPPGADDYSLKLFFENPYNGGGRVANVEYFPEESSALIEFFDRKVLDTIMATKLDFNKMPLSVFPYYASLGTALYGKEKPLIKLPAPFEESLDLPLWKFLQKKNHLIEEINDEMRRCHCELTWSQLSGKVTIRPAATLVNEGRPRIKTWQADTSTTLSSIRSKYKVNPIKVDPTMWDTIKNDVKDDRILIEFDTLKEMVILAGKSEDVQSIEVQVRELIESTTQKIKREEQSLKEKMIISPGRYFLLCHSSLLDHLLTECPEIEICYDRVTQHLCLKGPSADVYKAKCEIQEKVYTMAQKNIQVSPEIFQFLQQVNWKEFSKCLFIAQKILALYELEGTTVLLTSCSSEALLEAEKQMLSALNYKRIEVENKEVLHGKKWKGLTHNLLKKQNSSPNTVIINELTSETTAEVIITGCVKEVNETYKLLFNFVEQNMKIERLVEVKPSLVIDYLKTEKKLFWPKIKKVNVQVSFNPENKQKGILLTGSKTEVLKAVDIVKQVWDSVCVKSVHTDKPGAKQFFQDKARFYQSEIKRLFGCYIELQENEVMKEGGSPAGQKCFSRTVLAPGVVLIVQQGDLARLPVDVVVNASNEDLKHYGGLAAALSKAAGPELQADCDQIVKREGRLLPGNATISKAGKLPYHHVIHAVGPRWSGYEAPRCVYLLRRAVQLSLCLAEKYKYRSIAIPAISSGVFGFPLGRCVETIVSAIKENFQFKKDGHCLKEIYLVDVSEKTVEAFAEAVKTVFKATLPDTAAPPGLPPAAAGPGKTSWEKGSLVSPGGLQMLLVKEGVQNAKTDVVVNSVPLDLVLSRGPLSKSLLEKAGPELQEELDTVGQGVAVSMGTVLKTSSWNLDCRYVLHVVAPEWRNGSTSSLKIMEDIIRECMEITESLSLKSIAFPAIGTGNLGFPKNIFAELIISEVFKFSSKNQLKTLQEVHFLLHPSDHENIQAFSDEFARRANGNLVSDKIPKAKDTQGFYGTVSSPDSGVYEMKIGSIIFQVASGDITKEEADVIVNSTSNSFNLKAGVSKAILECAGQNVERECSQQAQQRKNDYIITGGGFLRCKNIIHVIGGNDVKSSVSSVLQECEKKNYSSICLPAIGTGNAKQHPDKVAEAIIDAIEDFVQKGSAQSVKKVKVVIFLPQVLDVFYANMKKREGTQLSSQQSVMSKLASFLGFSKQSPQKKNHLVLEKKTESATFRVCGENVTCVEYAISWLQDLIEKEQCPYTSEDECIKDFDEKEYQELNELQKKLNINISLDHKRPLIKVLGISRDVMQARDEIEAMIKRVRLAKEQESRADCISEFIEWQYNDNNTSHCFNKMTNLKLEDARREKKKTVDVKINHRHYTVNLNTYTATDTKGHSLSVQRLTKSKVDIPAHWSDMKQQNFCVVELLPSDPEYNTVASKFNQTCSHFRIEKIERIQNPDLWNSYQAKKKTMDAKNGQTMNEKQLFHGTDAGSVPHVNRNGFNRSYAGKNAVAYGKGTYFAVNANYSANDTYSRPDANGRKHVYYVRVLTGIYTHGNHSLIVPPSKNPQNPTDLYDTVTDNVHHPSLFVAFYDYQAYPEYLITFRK

TNKS2 (PARP5B) = target: T2, TNKS2 (PARP5B) (Homo sapiens, UniProt Q9H2K2); assay: as above; details: Figure 5
T2 sequence (Q9H2K2 1-1166): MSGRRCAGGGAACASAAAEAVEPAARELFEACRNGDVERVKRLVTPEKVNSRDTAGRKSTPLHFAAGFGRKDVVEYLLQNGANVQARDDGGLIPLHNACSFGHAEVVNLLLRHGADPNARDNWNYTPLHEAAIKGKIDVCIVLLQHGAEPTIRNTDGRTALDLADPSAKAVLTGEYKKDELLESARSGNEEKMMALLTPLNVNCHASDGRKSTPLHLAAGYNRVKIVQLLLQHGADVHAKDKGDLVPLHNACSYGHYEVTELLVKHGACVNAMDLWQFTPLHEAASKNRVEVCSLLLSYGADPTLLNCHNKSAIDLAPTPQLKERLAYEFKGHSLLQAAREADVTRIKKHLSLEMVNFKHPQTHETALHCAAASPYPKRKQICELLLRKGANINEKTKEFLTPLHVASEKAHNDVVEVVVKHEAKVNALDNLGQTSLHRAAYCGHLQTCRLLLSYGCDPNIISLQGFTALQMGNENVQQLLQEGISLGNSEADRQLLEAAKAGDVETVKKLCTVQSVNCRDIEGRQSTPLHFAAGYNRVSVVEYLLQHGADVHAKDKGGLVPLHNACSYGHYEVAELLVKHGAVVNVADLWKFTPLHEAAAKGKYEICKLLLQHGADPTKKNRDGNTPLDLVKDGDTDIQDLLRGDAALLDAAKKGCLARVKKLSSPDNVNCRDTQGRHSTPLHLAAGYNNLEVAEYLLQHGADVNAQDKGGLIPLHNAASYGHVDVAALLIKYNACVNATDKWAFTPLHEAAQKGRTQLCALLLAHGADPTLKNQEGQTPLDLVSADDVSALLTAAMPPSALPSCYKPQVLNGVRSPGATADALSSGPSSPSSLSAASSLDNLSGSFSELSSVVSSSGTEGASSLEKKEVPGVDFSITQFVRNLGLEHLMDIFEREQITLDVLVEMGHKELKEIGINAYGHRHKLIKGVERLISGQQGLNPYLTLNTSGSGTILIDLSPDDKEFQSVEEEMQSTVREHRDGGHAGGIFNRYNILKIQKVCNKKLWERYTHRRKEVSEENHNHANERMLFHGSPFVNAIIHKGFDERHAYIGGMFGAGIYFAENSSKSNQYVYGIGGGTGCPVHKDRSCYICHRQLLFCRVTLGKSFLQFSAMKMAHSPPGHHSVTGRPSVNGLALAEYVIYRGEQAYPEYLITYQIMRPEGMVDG

PARP10 = target: T3, PARP10 (Homo sapiens, UniProt Q53GL7); assay: as above; details: Figure 5
T3 sequence (Q53GL7 1-1025): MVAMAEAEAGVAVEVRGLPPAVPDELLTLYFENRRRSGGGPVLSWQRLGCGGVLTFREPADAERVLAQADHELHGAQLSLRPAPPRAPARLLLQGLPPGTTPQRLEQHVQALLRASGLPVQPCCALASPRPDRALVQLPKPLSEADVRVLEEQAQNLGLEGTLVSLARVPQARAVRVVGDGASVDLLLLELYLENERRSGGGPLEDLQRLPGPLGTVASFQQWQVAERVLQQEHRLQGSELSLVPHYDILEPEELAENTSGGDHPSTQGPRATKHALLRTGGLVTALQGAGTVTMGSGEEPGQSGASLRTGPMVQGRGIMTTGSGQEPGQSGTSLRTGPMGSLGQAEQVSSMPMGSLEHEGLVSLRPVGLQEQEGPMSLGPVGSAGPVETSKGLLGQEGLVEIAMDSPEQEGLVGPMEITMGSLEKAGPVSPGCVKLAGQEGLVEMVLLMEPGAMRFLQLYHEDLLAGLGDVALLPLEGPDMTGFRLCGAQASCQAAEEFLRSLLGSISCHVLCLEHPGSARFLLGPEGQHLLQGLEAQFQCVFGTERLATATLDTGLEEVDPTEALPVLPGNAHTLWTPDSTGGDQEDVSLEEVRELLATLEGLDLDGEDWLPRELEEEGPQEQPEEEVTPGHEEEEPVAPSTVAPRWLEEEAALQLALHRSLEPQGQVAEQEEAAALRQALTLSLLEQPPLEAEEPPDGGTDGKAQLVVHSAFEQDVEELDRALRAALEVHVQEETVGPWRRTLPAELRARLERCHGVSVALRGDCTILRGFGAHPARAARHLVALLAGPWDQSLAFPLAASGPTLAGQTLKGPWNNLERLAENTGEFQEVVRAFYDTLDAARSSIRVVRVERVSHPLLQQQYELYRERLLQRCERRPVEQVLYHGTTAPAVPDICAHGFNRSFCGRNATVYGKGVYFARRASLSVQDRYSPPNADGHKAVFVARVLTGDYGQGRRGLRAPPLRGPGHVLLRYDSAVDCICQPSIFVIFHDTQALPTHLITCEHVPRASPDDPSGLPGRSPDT

PARP1 = PARP1 (Homo sapiens, UniProt P09874); assay: BPS PARP1 Chemiluminescent Activity Assay Kit
PARP1, sequence (P09874 whole entry): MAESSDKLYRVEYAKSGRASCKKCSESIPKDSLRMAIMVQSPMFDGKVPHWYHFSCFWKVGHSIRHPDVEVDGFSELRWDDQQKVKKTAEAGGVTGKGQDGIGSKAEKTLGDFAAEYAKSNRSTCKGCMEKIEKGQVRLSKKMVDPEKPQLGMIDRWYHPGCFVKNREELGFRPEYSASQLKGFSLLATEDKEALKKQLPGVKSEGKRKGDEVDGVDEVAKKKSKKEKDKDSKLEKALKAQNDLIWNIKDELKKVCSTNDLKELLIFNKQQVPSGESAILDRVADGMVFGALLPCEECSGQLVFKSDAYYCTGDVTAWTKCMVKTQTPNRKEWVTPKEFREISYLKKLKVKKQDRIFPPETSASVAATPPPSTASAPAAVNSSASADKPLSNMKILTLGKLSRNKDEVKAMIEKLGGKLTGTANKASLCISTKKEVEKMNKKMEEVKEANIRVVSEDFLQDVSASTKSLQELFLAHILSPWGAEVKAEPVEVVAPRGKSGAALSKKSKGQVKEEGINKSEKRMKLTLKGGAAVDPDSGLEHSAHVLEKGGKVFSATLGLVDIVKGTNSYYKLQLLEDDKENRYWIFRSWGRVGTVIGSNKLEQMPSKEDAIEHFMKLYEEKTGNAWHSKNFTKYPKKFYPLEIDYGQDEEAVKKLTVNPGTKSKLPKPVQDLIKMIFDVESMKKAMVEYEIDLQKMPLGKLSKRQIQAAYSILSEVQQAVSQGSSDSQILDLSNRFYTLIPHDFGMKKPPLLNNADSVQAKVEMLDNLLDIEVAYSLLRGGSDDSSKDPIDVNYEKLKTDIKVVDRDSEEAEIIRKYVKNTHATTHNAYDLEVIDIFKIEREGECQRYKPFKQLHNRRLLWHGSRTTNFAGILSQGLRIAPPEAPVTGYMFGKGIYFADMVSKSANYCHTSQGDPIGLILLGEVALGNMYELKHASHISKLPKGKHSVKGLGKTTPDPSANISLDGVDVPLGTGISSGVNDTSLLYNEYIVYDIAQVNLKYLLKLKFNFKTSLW

PARP3 inhibition (PARP3): substantially inhibited
PARP14 inhibition (PARP14): did not interfere
TNKS2 inhibition (TNKS2 (PARP5B)): substantially inhibited
PARP10 inhibition (PARP10): did not interfere
IC50 (PARP1): 82 ± 45 nM
SMILES: NC(=O)c1cccc2c1O/C(=C\c1ccc(O)cc1)C(=O)N2 [Compound 49, (Z)-2-(4-Hydroxybenzylidene)-3-oxo-3,4-dihydro-2H-benzo[b][1,4]oxazine-8-carboxamide]

From paper PMC8142146 (Bioorganic chemistry, 2020)
